Data from US20140322705A1, “Cancer diagnostic and cancer therapeutic” (Thomas Jefferson University, priority 2010, published 2014).
Entries after “also recorded” stand apart in the source; their conditions may differ.

What was measured:
[1] = tested on: MDA-MB-231 breast cancer cells; experiment: Tumor vascularity by CD31 immuno-staining of xenograft tumors; assay type: in vivo, athymic nude mice; details: 500 mg/kg daily i.p.; primary xenograft tumors
Method: Tumor angiogenesis could account for the tumor-promoting properties of 3-hydroxy-butyrate. Thus, the status of tumor vascularity was evaluated using antibodies directed against CD31. However, the vascular density (number of vessels per field) was not increased by the administration of either 3-hydroxy-butyrate or L-lactate. Thus, other mechanisms, such as the “Reverse Warburg Effect” may be operating to increase tumor growth. n.s., not significant.
One mechanism that could account for the tumor-promoting properties of 3-hydroxy-butyrate is increased tumor angiogenesis. Thus, the status of tumor vascularity using antibodies directed against CD31 was evaluated. […] Thus, other mechanisms, such as the “Reverse Warburg Effect” may be operating to increase tumor growth.

MDA-MB-231 cells [2] = experiment: Modified Boyden Chamber (Transwell) cell migration assay; assay type: cell-based, human; details: 10 mM in lower chamber
Method: 3-hydroxy-butyrate or L-lactate can function as chemo-attractants. shown using a modified “Boyden Chamber” assay, employing Transwell cell culture inserts. MDA-MB-231 cells were placed in the upper chambers, and 3-hydroxy-butyrate (10 mM) or L-lactate (10 mM) were introduced into the lower chambers. Note that both 3-hydroxy-butyrate and L-lactate promoted cancer cell migration by nearly 2-fold. *p<0.05, control (vehicle alone) versus 3-hydroxy-butyrate or L-lactate (Student's t-test).
Next, whether 3-hydroxy-butyrate or L-lactate can function as chemo-attractants was assessed, using a modified “Boyden Chamber” assay, employing Transwell cell culture inserts. MDA-MB-231 cells were placed in the upper chambers, and 3-hydroxy-butyrate (10 mM) or L-lactate (10 mM) were introduced into the lower chambers. […] Thus, the metabolic products of aerobic glycolysis can also function as chemo-attractants for cancer cells, probably via a form of nutrient sensing.

[3] = tested on: MDA-MB-231 breast cancer cells; experiment: MDA-MB-231 flank xenograft tumor growth; assay type: in vivo, athymic nude mice; details: 500 mg/kg daily i.p.; tumor volume at 3 weeks post tumor cell injection
Method: A xenograft model was employed in which MDA-MB-231 breast cancer cells injected into the flanks of athymic nude mice to evaluate the potential tumor promoting properties of the products of aerobic glycolysis (such as 3-hydroxy-butyrate and L-lactate). Tumor growth was assessed by measuring tumor volume, at 3-weeks post tumor cell injection. During this time period, mice were administered either PBS alone, or PBS containing 3-hydroxy-butyrate (500 mg/kg) or L-lactate (500 mg/kg), via daily intra-peritoneal (i.p.) injections. Note that 3-hydroxy-butyrate is sufficient to promote an ˜2.5-fold increase in tumor growth, relative to the PBS-alone control. Under these conditions.
To evaluate the potential tumor promoting properties of the products of aerobic glycolysis (such as 3-hydroxy-butyrate and L-lacate), a xenograft model employing MDA-MB-231 breast cancer cells injected into the flanks of athymic nude mice was used. Tumor growth was assessed by measuring tumor volume, at 3-weeks post tumor cell injection. During this time period, mice were administered either PBS alone, or PBS containing 3-hydroxy-butyrate (500 mg/kg) or L-lactate (500 mg/kg), via daily intra-peritoneal (i.p.) injections.

MDA-MB-231 cells [4] = experiment: Lung colonization (metastasis) assay, tail vein injection; assay type: in vivo, athymic nude mice; details: 7 weeks post-injection; India ink staining
Method: To examine the effect of 3-hydroxy-butyrate and L-lactate on cancer cell metastasis, a well-established lung colonization assay was used, where MDA-MB-231 cells are injected into the tail vein of athymic nude mice. After 7 weeks post-injection, the lungs were harvested and the metastases were visualized with India ink staining. Using this approach, the lung parenchyma stains black, while the tumor metastatic foci remain unstained, and appear white. The number of metastases per lung lobe was scored. Note that relative to PBS-alone, the administration of L-lacate stimulated the formation of metastatic foci by ˜10-fold. Under these conditions, 3-hydroxy-butryate had no effect on metastasis formation. *p<0.01, PBS alone versus L-lactate (Student's t-test and ANOVA); *p<0.05, PBS alone versus L-lactate (Mann-Whitney test).
The effect of 3-hydroxy-butyrate and L-lactate on cancer cell metastasis were measured. For this purpose, a well-established lung colonization assay was used, where MDA-MB-231 cells are injected into the tail vein of athymic nude mice. After 7 weeks post-injection, the lungs were harvested and the metastases were visualized with India ink staining. In this method, the lung parenchyma stains black, while the tumor metastatic foci remain unstained, and appear white. For quantitation purposes. the number of metastases per lung lobe was scored.

MCF7 cancer cells = details: L-lactate added to culture media; cited from earlier work

SMILES | vascular density (number of vessels per field), CD31 [1] | promotion of cancer cell migration versus vehicle alone (MDA-MB-231 cells [2]) [fold] | increase in tumor growth (tumor volume) relative to PBS-alone control [3] | formation of lung metastatic foci (metastases per lung lobe) relative to PBS-alone (MDA-MB-231 cells [4]) | mitochondrial mass (MCF7 cancer cells) | appearance of lung metastatic foci versus PBS-alone controls (representative images) (MDA-MB-231 cells [4])
CC(O)CC(=O)O (stereo not shown) [3-hydroxy-butyrate] | not increased; also recorded: without any significant increases | ~2 | ~2.5 fold | no effect |  | 
C[C@H](O)C(=O)O [L-lactate] | not increased | ~2 | no significant effect; also recorded: did not increase | ~10 fold | dramatically increase | more numerous, and are also larger in size
